Measured values as given in paper PMC12175894 (Science Advances, 2025).
Residue numbers refer to the chain shown, from its start. Like-named read-outs stand apart in the source and are kept apart here.

Key:
[1] = biological target: T1, 5-HT1AR Y96^2.64A (Homo sapiens, UniProt P08908, Y96A); test: Radioligand competition, displacement of [3H]WAY100635; format: binding; conditions: for decrease of affinity when Y96^2.64 and Q97^2.65 were replaced by alanine: Y96A and Q97A mutants vs WT
T1 sequence (P08908 1-422 Y96A): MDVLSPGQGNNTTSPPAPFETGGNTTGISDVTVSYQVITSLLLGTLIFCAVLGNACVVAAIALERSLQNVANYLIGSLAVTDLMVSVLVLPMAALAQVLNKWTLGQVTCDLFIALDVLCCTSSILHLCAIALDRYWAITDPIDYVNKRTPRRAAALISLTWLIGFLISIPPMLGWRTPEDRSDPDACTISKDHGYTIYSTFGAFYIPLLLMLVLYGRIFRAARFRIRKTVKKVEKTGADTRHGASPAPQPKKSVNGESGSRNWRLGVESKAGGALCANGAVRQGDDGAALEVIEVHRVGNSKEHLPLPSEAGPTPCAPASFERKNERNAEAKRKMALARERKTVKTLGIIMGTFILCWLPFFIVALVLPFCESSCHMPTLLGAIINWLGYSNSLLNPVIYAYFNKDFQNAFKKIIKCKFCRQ

[2] = biological target: T2, 5-HT1AR F112^3.28W (Homo sapiens, UniProt P08908, F112W); test: as above; format: binding
T2 sequence (P08908 1-422 F112W): T1 sequence (P08908 1-422 Y96A) with A96Y, F112W

[3] = biological target: T3, 5-HT6R (Homo sapiens, UniProt P50406); test: Radioligand competition, displacement of [3H]LSD; format: binding
T3 construct: host or cells: HEK293T, transient; membranes

[4] = biological target: T2, 5-HT1AR F112^3.28W; test: GloSensor cAMP assay in HEK293A cells; format: cell-based
[5] = biological target: T4, 5-HT1AR wildtype (Homo sapiens, UniProt P08908); test: GloSensor inhibition of cAMP accumulation in HEK293AΔGs; format: cell-based
T4 construct: host or cells: HEK293T, HEK293A, HEK293AΔGs, HEK293AΔGi/o, HEK293AΔARRB1/B2
T4 sequence (P08908 1-422): T1 sequence (P08908 1-422 Y96A) with A96Y

[6] = biological target: T1, 5-HT1AR Y96^2.64A; test: as above; format: cell-based; conditions: for Emax: read-out: Emax [% ± SEM], inhibition of cAMP accumulation
[7] = biological target: T1, 5-HT1AR Y96^2.64A; test: GloSensor cAMP accumulation in HEK293AΔGi/o; format: cell-based; conditions: read-out: Emax [% ± SEM], cAMP accumulation
[8] = biological target: T4, 5-HT1AR wildtype; test: β-arrestin 2 recruitment, enhanced bystander BRET in HEK293T with GRK2; format: cell-based; conditions: HEK-293T; read-out: Emax [% ± SEM], β-arrestin 2 recruitment
[9] = biological target: T5, 5-HT1AR + GαoA (Homo sapiens, UniProt P08908); test: GloSensor cAMP in HEK293AΔGi/o co-transfected with GαoA; format: cell-based
T5 construct: host or cells: HEK293AΔGi/o

[10] = system: male C56BL/6 mice; test: von Frey assay, hind paw mechanical thresholds; format: in vivo, mouse; conditions: 10 mg/kg i.p., 30 min after injection
[11] = system: 5-HT1AR KO mice; test: 52°C hot plate in 5-HT1AR KO mice; format: in vivo, mouse
[12] = biological target: T6, 5-HT1AR (Homo sapiens, UniProt P08908); test: Complementation-based β-arrestin 2 recruitment PathHunter assay; conditions: for Emax: relative to serotonin
T6 sequence (P08908 1-422): T1 sequence (P08908 1-422 Y96A) with A96Y

[13] = biological target: T2, 5-HT1AR F112^3.28W; test: β-arrestin 2 recruitment, enhanced bystander BRET in HEK293T with GRK2; conditions: HEK-293T, read-out: Emax [% ± SEM], β-arrestin 2 recruitment
[14] = biological target: T6, 5-HT1AR; test: GloSensor cAMP assay in HEK293T cells; format: cell-based; parameters: host or cells: HEK293T, HEK293A, HEK293AΔGs, HEK293AΔGi/o, HEK293AΔARRB1/B2
[15] = read-out: Emax, β-arrestin 2 recruitment, PathHunter, elevated GRK2
[16] = read-out: Emax, β-arrestin 2 recruitment, PathHunter, native GRK2

T3 sequence (P50406 whole entry): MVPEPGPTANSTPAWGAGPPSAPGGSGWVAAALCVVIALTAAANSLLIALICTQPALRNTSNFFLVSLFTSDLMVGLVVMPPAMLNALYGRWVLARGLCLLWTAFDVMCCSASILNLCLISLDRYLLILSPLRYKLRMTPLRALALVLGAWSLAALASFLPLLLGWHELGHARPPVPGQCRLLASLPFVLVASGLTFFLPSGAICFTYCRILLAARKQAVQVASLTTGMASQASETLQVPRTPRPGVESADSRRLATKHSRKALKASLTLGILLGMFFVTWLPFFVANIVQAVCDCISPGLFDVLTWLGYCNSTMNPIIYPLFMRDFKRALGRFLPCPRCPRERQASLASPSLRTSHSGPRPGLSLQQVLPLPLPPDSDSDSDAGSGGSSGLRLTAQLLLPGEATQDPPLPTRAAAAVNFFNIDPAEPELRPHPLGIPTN
T5 sequence (P08908 whole entry): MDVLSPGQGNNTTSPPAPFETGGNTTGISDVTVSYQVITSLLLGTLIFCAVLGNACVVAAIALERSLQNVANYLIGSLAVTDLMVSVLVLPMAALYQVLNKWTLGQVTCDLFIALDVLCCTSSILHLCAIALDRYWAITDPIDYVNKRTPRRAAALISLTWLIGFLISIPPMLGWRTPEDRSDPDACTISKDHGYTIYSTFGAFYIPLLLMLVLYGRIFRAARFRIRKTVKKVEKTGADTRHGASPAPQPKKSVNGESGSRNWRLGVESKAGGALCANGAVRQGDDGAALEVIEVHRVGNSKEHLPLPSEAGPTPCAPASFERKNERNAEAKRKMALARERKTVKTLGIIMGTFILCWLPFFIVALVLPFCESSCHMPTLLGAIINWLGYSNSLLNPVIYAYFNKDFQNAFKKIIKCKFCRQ
T5 sequence (P09471 2-354 partner limits assumed): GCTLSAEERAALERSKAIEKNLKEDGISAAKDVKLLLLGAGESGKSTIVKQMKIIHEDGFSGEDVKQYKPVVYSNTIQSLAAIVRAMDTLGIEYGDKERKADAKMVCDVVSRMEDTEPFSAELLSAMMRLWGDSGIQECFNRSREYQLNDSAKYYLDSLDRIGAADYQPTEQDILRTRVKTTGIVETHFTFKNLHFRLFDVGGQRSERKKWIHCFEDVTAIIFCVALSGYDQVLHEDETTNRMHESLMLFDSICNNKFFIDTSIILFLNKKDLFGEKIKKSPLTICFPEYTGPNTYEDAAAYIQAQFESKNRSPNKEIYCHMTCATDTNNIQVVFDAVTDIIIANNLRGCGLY

With `COc1ccccc1OCCNCCCOc1ccc2c(c1)NC(=O)CO2` [ST171] the Ki ([1]; 5-HT1AR Y96A, HEK 293T membranes, read-out: Ki [nM ± SEM]) was 63 nM, the “decrease of affinity when Y96^2.64 and Q97^2.65 were replaced by alanine” value [1] was “more than 150 fold” and the Ki ([2]; 5-HT1AR F112W, HEK 293T membranes, read-out: Ki [nM ± SEM]) was 0.16 nM. The Ki ([3]; 5-HT6, read-out: pKi (converted)) was 3080 nM, the Ki ([3]; 5-HT6R, HEK 293T membranes, read-out: Ki [nM ± SEM]) was 3300 ± 300 nM and the Emax ([4]; HEK293-A, read-out: Emax [%±SEM], inhibition of cAMP accumulation) was 77 ± 9%. For the same molecule, the EC50 ([4]; HEK293A, GloSensor, F112W; read-out: EC50 left [nM±SEM], inhibition of cAMP accumulation) was 1.7 ± 0.5 nM, the EC50 ([5]; HEK293AΔGs, wildtype, read-out: EC50 [nM ± SEM], inhibition of cAMP accumulation) was 5.3 ± 0.8 nM and the “Emax [% ± SEM], inhibition of cAMP accumulation” value ([5]; HEK293AΔGs, wildtype, relative to serotonin) was 74 ± 3%. The Emax ([5]; read-out: Emax [% ± SEM], inhibition of cAMP accumulation, HEK293AΔGs, wildtype, relative to serotonin) was 73%, the EC50 ([6]; HEK293AΔGs, Y96A, read-out: EC50 [nM ± SEM], inhibition of cAMP accumulation) was 14 ± 3.5 nM and the Emax [6] was 76 ± 2%. For the same molecule, the Emax [7] was less than 5%, the Emax [8] was less than 5% and the Emax [9] was 100%. The EC50 ([9]; HEK293AΔGi/o + GαoA, read-out: EC50 [nM ± SEM], inhibition of cAMP accumulation) was 4.1 ± 1 nM, the “mechanical thresholds, von Frey” value [10] was “significantly increasing mechanical thresholds” and the “response latency, hot plate in 5-HT1AR KO mice” value ([11]; 10 mg/kg) was “no significant antinociceptive effect”. For the same molecule, the EC50 [12] was 5.5 ± 1.4 nM, the Emax [12, 15] was 15% and the Emax [12, 16] was less than 5%. It also gave an Emax [13] of less than 5%, an EC50 ([14]; HEK293T, GloSensor; read-out: EC50 left [nM±SEM], inhibition of cAMP accumulation) of 0.9 ± 0.2 nM and an Emax ([14]; HEK-293T, read-out: Emax [%±SEM], inhibition of cAMP accumulation) of 100 ± 3%.
`Cc1ccc(CNCC2(F)CCN(C(=O)c3ccc(F)c(Cl)c3)CC2)nc1` [befiradol, reference compound] was tested, and the “decrease of affinity when Y96^2.64 and Q97^2.65 were replaced by alanine” value [1] was 4.2- to 13.3 fold, the “decrease in the binding affinity upon mutation of F112^3.28 to tryptophan” value ([2]; F112W vs WT) was 16 fold and the Ki [3] was greater than 50000 nM. For the same molecule, the Emax ([4]; HEK293-A; read-out: Emax [%±SEM], inhibition of cAMP accumulation) was 96 ± 4%, the “Esat [%±SEM]” value ([4]; HEK293A, GloSensor, F112W) was 90 ± 4% and the Emax ([5]; read-out: Emax [% ± SEM], inhibition of cAMP accumulation) was 87 ± 3%. For the same molecule, the Emax [6] was 104 ± 5%, the Emax [7] was 69 ± 5% and the Emax [8] was 79 ± 1%. The Emax [9] was 107 ± 3%, the “mechanical thresholds, von Frey” value [10] was “significantly increasing mechanical thresholds” and the “response latency, hot plate in 5-HT1AR KO mice” value ([11]; 1.0 mg/kg) was “no significant antinociceptive effect”. For the same molecule, the “increase in efficacy with elevated vs native GRK2” value ([12]; PathHunter β-arrestin 2) was “approximately 30%”, the “increase of potency with elevated vs native GRK2” value ([12]; PathHunter β-arrestin 2) was 4 fold and the Emax [12, 15] was 96 ± 3%. The Emax [12, 16] was 67%, the Emax [13] was 86 ± 3% and the “Esat [%±SEM]” value ([14]; HEK293T, GloSensor) was 71 ± 6%. It also gave an Emax ([14]; HEK-293T; read-out: Emax [%±SEM], inhibition of cAMP accumulation) of 111 ± 6%.
